Results from article PMC8762706, “Design of Coibamide A Mimetics with Improved Cellular Bioactivity” (ACS Medicinal Chemistry Letters, 2021).
Like-named read-outs stand apart in the source and are kept apart here. Where a SMILES comes first, the peptide text is derived from it. Bridges are numbered along the chain shown (N, C = ends). [ ]: non-standard residue; d: D form. The star is where a group is joined. Phe(4-NO2) = N[C@@H](Cc1ccc([N+](=O)[O-])cc1)C(=O)O; Phe(4-CF3) = N[C@@H](Cc1ccc(C(F)(F)F)cc1)C(=O)O; Bip = N[C@@H](Cc1ccc(-c2ccccc2)cc1)C(=O)O; Phe(4-Cl) = N[C@@H](Cc1ccc(Cl)cc1)C(=O)O; dNMeaIle = CC[C@H](C)[C@@H](NC)C(=O)O; NMe2Val = CC(C)[C@@H](C(=O)*)N(C)C; NMeLys(Me) = CNCCCC[C@H](NC)C(=O)O; NMeI = CC[C@H](C)[C@H](NC)C(=O)O; NMeT = CN[C@H](C(=O)O)[C@@H](C)O; NMeL = CN[C@@H](CC(C)C)C(=O)O; NMeK = CN[C@@H](CCCCN)C(=O)O; dHiv = CC(C)[C@@H](O)C(=O)O; NMeS = CN[C@@H](CO)C(=O)O; NMeA = CN[C@@H](C)C(=O)O; dNMeA = CN[C@H](C)C(=O)O; tBu = CC(C)(C)*

System: A549 cells
Assay: Growth inhibition assay (MTS) in A549 cells
Format: cell-based
Method: Growth Inhibition AssayS3
A549 cells were cultured in Dulbecco’s modified Eagle’s medium (DMEM; Sigma) supplemented with 10% (v/v) fetal bovine serum at 37 °C in a 5% CO2-incubator. Growth inhibition assays using A549 cells were performed in 96-well plates (BD Falcon). A549 cells were seeded at 1000 cells/well in 90 μL of culture media, respectively, and were cultured for 24 h. Chemical compounds in DMSO were diluted 50-fold with the culture medium in advance. 30 μL of the chemical diluents were added.
The final volume of DMSO in the medium was equal to 0.5% (v/v). The cells under chemical treatment were incubated for a further 72 h. The wells in the plates were washed twice with the cultured medium without phenol-red. After 1-hour incubation with 100 μL of the medium, the cell culture in each well was supplemented with 20 μL of the MTS reagent (Promega), followed by incubation for additional 40 min. Absorbance at 490 nm of each well was measured using a Wallac 1420 ARVO SX multilabel counter (Perkin Elmer). Three experiments were performed per condition and the averages of inhibition rates in each condition were evaluated to determine IC50 values using the GraphPad Prism software.

[1] = read-out: IC50 (concentration for 50% growth inhibition of A549 cells), MTS assay, 72 h treatment, 0.5% DMSO, absorbance 490 nm, n = 3

Structure (SMILES) | IC50 [1] | further results
CC[C@H](C)[C@H]1C(=O)N[C@@H](C)C(=O)N(C)[C@@H](CC(C)C)C(=O)N[C@@H](Cc2ccc([N+](=O)[O-])cc2)C(=O)N(C)CCCC[C@H](N(C)C(=O)[C@H](CC(C)C)N(C)C(=O)[C@H](C)N(C)C(=O)[C@H](OC(=O)[C@H](C(C)C)N(C)C)C(C)C)C(=O)N(C)[C@@H](C)C(=O)N1C [10b] (NMe2Val-[dHiv][NMeA][NMeL][NMeLys(Me)][NMeA][NMeI]A[NMeL][Phe(4-NO2)]; lactam 4-C) | 1100 ± 200 nM | –
CC[C@H](C)[C@H]1C(=O)N[C@@H](C)C(=O)N(C)[C@@H](CC(C)C)C(=O)N[C@@H](Cc2ccc(OC)cc2)C(=O)N(C)[C@H](C)C(=O)O[C@H](C)[C@H](N(C)C(=O)[C@H](CC(C)C)N(C)C(=O)[C@H](COC)N(C)C(=O)[C@H](OC(=O)[C@H](C(C)C)N(C)C)C(C)C)C(=O)N(C)[C@@H](COC)C(=O)N1C [coibamide A] (NMe2Val-[dHiv][NMeS](Me)[NMeL][NMeT][NMeS](Me)[NMeI]A[NMeL]Y(Me)[dNMeA]; ester 4-C) | – | IC50 (read-out: IC50 (concentration for 50% growth inhibition of A549 cells), MTS assay, 72 h treatment, n = 3): 1.4 ± 0.4 nM
CC[C@H](C)[C@H]1C(=O)N[C@@H](C)C(=O)N(C)[C@@H](CC(C)C)C(=O)N[C@@H](Cc2ccc(-c3ccccc3)cc2)C(=O)N(C)[C@H](C)C(=O)O[C@H](C)[C@H](N(C)C(=O)[C@H](CC(C)C)N(C)C(=O)[C@H](COC)N(C)C(=O)[C@H](OC(=O)[C@H](C(C)C)N(C)C)C(C)C)C(=O)N(C)[C@@H](COC)C(=O)N1C [compound 11, [Bph^10]-CbA] (NMe2Val-[dHiv][NMeS](Me)[NMeL][NMeT][NMeS](Me)[NMeI]A[NMeL][Bip][dNMeA]; ester 4-C) | – | fold more potent cytotoxicity than 1 (coibamide A) (ratio of IC50 values to 1): 12 fold
CC[C@H](C)[C@H]1C(=O)N[C@@H](C)C(=O)N(C)[C@@H](CC(C)C)C(=O)N[C@@H](Cc2ccc(C(F)(F)F)cc2)C(=O)N(C)CCCC[C@H](N(C)C(=O)[C@H](CC(C)C)N(C)C(=O)[C@H](C)N(C)C(=O)[C@H](OC(=O)[C@H](C(C)C)N(C)C)C(C)C)C(=O)N(C)[C@@H](C)C(=O)N1C [10c] (NMe2Val-[dHiv][NMeA][NMeL][NMeLys(Me)][NMeA][NMeI]A[NMeL][Phe(4-CF3)]; lactam 4-C) | 370 ± 70 nM | –
CC[C@H](C)[C@H]1C(=O)N[C@@H](C)C(=O)N(C)[C@@H](CC(C)C)C(=O)N[C@@H](Cc2ccc(OC)cc2)C(=O)NCCCC[C@H](N(C)C(=O)[C@H](CC(C)C)N(C)C(=O)[C@H](C)N(C)C(=O)[C@H](OC(=O)[C@H](C(C)C)N(C)C)C(C)C)C(=O)N(C)[C@@H](C)C(=O)N1C [2e] (NMe2Val-[dHiv][NMeA][NMeL][NMeK][NMeA][NMeI]A[NMeL]Y(Me); lactam 4-C) | 850 ± 20 nM | –
CC[C@H](C)[C@H]1C(=O)N[C@@H](C)C(=O)N(C)[C@@H](CC(C)C)C(=O)N[C@@H](Cc2ccc(Cl)cc2)C(=O)N(C)CCCC[C@H](N(C)C(=O)[C@H](CC(C)C)N(C)C(=O)[C@H](C)N(C)C(=O)[C@H](OC(=O)[C@H](C(C)C)N(C)C)C(C)C)C(=O)N(C)[C@@H](C)C(=O)N1C [10f] (NMe2Val-[dHiv][NMeA][NMeL][NMeLys(Me)][NMeA][NMeI]A[NMeL][Phe(4-Cl)]; lactam 4-C) | 710 ± 190 nM | –
CC[C@H](C)[C@@H]1C(=O)N[C@@H](C)C(=O)N(C)[C@@H](CC(C)C)C(=O)N[C@@H](Cc2ccc(OC)cc2)C(=O)N(C)CCCC[C@H](N(C)C(=O)[C@H](CC(C)C)N(C)C(=O)[C@H](C)N(C)C(=O)[C@H](OC(=O)[C@H](C(C)C)N(C)C)C(C)C)C(=O)N(C)[C@@H](C)C(=O)N1C [9b] (NMe2Val-[dHiv][NMeA][NMeL][NMeLys(Me)][NMeA][dNMeaIle]A[NMeL]Y(Me); lactam 4-C) | > 10000 nM | –
CC[C@H](C)[C@H]1C(=O)N[C@@H](C)C(=O)N(C)[C@@H](CC(C)C)C(=O)N[C@@H](Cc2ccc(OC(C)(C)C)cc2)C(=O)N(C)CCCC[C@H](N(C)C(=O)[C@H](CC(C)C)N(C)C(=O)[C@H](C)N(C)C(=O)[C@H](OC(=O)[C@H](C(C)C)N(C)C)C(C)C)C(=O)N(C)[C@@H](C)C(=O)N1C [10h] (NMe2Val-[dHiv][NMeA][NMeL][NMeLys(Me)][NMeA][NMeI]A[NMeL]Y(tBu); lactam 4-C) | 1000 ± 100 nM | –
